The source of these data is patent publication US4649136A, “Cephem compounds” (Fujisawa Pharmaceutical Co., Ltd., priority 1981, dated 1987).

The nature of one series: Urinary excretion. As to conditions: rat; rats; oral administration of 100 mg/kg; urine 0 to 6 and 6 to 24 hours; bioassay; read-out: Urinary recovery in 24 hours (%). In kind it is in vivo.
A short description of a further series: in vivo. As to conditions: rat, po, 100 mg/kg.
The next series relates to Proteus mirabilis 18. As to the kind of experiment: In vitro antibacterial activity, two-fold agar-plate dilution method (MIC). In kind it is cell-based. The settings on record: HI-agar, 10^8 viable cells per ml, 37° C., 20 hours. As to the method:
(§1) In vitro antibacterial activity was determined by the two-fold agar-plate dilution method as described below. One loopful of an overnight culture of each test strain in Trypticase-soy broth (10^8 viable cells per ml) was streaked on heart infusion agar (HI-agar) containing graded concentrations of representative test compound, and the minimal inhibitory concentration (MIC) was expressed in terms of μg/ml after incubation at 37° C. for 20 hours.

For the next series, the system named is Klebsiella pneumoniae 7. Described as above. As to conditions: HI-agar, 10^8 viable cells per ml, 37° C., 20 hours. In kind it is cell-based. As to the method: as §1

Molecules are shown by their SMILES. Converted amounts (≈) assume the structure as drawn.

Description for Urinary excretion: Urine of rats was collected with a urine collector at 0 to 6, and 6 to 24 hours after oral administration of 100 mg/kg of the test antibiotic. The antibiotic levels in the urine samples were bioassayed with the standard solution prepared with M/15 phosphate buffer (pH 7.0) and the urinary recovery in 24 hours was calculated.
Description for in vivo: Rats anesthetized with pentobarbital were fixed in supine position, and a polyethylene cannula was inserted into the bile duct. Bile samples were collected at 0 to 3, 3 to 6, and 6 to 24 hours after oral administration of 100 mg/kg of the test antibiotic. The antibiotic levels in the bile samples were bioassayed with the standard solution prepared with M/15 phosphate buffer (pH 7.0) and the biliary recovery in 24 hours were calculated.

Take `O=C(O)CO/N=C(\C(=O)NC1C(=O)N2C(C(=O)O)=CCSC12)c1cscn1` (stereo not drawn) [Compound .circle.A, 7-[2-Carboxymethoxyimino-2-(4-thiazolyl)acetamido]-3-cephem-4-carboxylic acid (syn isomer)]: the dose excreted at 24 h was found to be 43.5% in the series “Urinary excretion” and 7.9% in the series “in vivo”. For the same compound, the minimum inhibitory concentration (MIC) in the series on Proteus mirabilis 18 and in the series with Klebsiella pneumoniae 7 was 0.05 µg/mL (≈ 0.121 µM) in each case.
